For experiment [1], the target named is Recombinant human SYK (amino acids 342-635), GST-SYK kinase fusion protein (Homo sapiens (Human), UniProt P43405). Nature of the experiment: SYK kinase inhibition test (Kinase Glo luminescence). The format is biochemical. The protocol: The catalytic activity of the GST-SYK kinase fusion protein was determined using the Kinase Glo® Luminescence Kinase test (Promega; V6712). In this homogeneous test the amount of ATP remaining after the kinase reaction is quantified by a luciferin-luciferase reaction using luminescence. The luminescence signal obtained correlates with the amount of ATP still present and thus correlates inversely with the activity of the kinase.
The test compounds were dissolved in 100% DMSO at a concentration of 10 mM and diluted in DMSO to a concentration of 1 mM. Serial Dilution is done in 100% DMSO. All further dilutions of the substances were carried out with test buffer (25 mM HEPES pH7.5; 25 mM MgCl2; 5 mM MnCl2; 50 mM KCl; 0.2% HSA; 0.01% CHAPS; 100 μM Na3VO4; 0.5 mM DTT). Dilution steps and concentration range were adapted according to need. 7 μl aliquots of these dilutions were transferred into a 384-well Optiplate (Perkin Elmer, #6007290). GST-SYK was diluted to 12 nM in the test buffer and 5 μl of this dilution were used in the kinase test (final concentration of SYK=4 nM in a total volume of 15 μl). After 15 minutes incubation at room temperature 3 μl of a mixture of 750 nM ATP and 100 μg/ml poly (L-Glutamic acid L-Tyrosine 4:1), Fluka #81357) in test buffer were added to each well and the incubation was continued for a further 60 minutes at room temperature.
(§1) Positive controls are the reaction mixtures that contain no test substance; negative controls (blanks) are reaction mixtures that contain no kinase.
After 60 minutes, 10 μl Kinase-Glo® solution (Promega, Cat. # V6712) (heated to room temperature) were added to each well and incubation was continued for a further 15 minutes. The plates were read in Envision Luminescence Reader (Perkin-Elmer).
(§2) The output file of the reader is a csv file that contains the well number and measured relative light units (RLU). For data evaluation and calculation, the measurement of the negative control was set as 100% ctrl and the measurement of the positive control was set as 0% ctrl. Based on this values the % value for the measurement of each substance concentration was calculated using an Assay Explorer software (Accelrys). Normally, the % ctrl values calculated are between 0% and 100% values but may also occur outside these limits in individual cases based on variability or compound characteristics. The IC50-values were calculated from the % ctrl values using Assay Explorer software. Calculation: [y=(a−d)/(1+(x/c)^b)+d] a=low value, d=high value; x=conc M; c=IC50 M; b=hill; y=% ctrl.
Satisfying SYK inhibitory capacities are represented by an IC50(SYK)-Value measured by this assay of <10 nMol.
(In general: Kinase-Glo reads ATP consumption through a luciferase reaction.)

Experiment [2] deals with Recombinant human Aurora B (amino acids 1-344) (Homo sapiens (Human), UniProt Q96GD4). Description: Aurora B kinase test (ADP Glo). The format is biochemical. The method, then: The activity of the Aurora B kinase protein was determined using the ADP Glo® Luminescence Kinase test (Promega; V9103X). In this homogeneous test the amount of ADP remaining after the kinase reaction is quantified by a luciferin-luciferase reaction using luminescence. The luminescence signal obtained correlates with the amount of ADP still present and thus correlates with the activity of the protein kinase.
The test compounds were dissolved in 100% DMSO at a concentration of 10 mM and diluted in DMSO to a concentration of 5 mM. Serial Dilution is done in 1:10 steps in 100% DMSO. All further dilutions of the substances were carried out with test buffer (50 mM Hepes, pH 7.5, 10 mM MgCl2, 1 mM EGTA, 60 μM Ultra Pure ATP, 0.01% Brij35, 0.1% BSA, 5 mM 8-Glycerophosphate) until a concentration was reached which was 2.5 times above the final test concentration (final concentration of the compounds: 50 μM to 0.005 nM). 4 μl aliquots of these dilutions were transferred into a 384-well Optiplate (Perkin Elmer, #6007290). His-Aurora B was diluted to 125 nM in the test buffer and 4 μl of this dilution were used in the kinase test (final concentration of Aurora B=50 nM in a total volume of 10 μl). After 15 minutes incubation at room temperature 2 μl of 250 μM substrate ([[…]]; University of Dundee) in test buffer were added to each well and the incubation was continued for a further 60 minutes at room temperature.
as §1
After 60 minutes, 10 μl ADP-Glo® solution (ADP-Glo Reagent #V912B Promega) (heated to room temperature) were added to each well and incubation was continued for a further 40. minutes. Then 20 μl Kinase detection mix (Detection Buffer #V913B Promega; Kinase Detection Substrate #V914B Promega) were added and incubated for 40 minutes at room temperature. The plates were read in Envision Luminescence Reader (Perkin-Elmer).
as §2, with “measured RLU.” for “measured relative light units (RLU).”, “as 0%” for “as 100%”, “as 100%” for “as 0%”, “concentration can be” for “concentration was”, “software (e.g. Accelrys).” for “software (Accelrys).”, “Calculation: [y=(a−d)/(1+(x/c)^b)+d],” for “Calculation: [y=(a−d)/(1+(x/c)^b)+d]”
(In general: ADP-Glo turns the ADP formed in a reaction into a luminescent signal.)

Where [3] appears, read: read-out: SYK inhibition IC50-value (chapter 5.1).
The mark [4] stands for this setting: read-out: AURB inhibition IC50-value (chapter 5.3).
The mark [5] stands for this setting: read-out: IC50(SYK) in SYK-inhibition assay.

The record followed here is patent publication US10155751B2, “Pyrazolyl-substituted heteroaryls and their use as medicaments” (Boehringer Ingelheim International GmbH, priority 2015, dated 2018).

Where two headings read alike, the source gives them in different places. Bounds are passed on as bounds.

The term IC50 denotes the point on the concentration scale where inhibition reaches its midpoint.

Recombinant human Aurora B (amino acids 1-344), sequence (Q96GD4 whole entry, the tested form may be a part): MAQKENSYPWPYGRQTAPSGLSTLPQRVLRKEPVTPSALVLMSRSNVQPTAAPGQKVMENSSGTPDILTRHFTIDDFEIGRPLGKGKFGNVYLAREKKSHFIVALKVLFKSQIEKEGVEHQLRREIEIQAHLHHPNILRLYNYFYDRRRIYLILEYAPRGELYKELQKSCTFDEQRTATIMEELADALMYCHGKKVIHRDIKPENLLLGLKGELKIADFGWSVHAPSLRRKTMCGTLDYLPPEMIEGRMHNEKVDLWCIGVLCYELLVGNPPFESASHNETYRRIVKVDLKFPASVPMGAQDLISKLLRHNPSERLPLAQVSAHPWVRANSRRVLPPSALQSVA

For the compound `Cc1c2c(O[C@H](C)[C@H]3CNC(=O)C3)nc(-c3c[nH]nc3C(C)(C)C)cc2nn1C` [Example 4, (R)-4-{(R)-1-[6-(3-tert-Butyl-1H-pyrazol-4-yl)-2,3-dimeth-yl-2H-pyrazolo[4,3-c]pyridin-4-yloxy]-ethyl}-pyrrolidin-2-one], the 50% inhibitory concentration (IC50) in experiment [1] (setting [3]) came out at 2.2 nM; in experiment [2] (setting [4]) it was 65200 nM. In addition, in experiment [2], the “selectivity ratio IC50(AURB)/IC50(SYK)” value worked out at 29636.
The like results for `C[C@@H](Oc1cc(-c2cnn(C3CCC(F)(F)C3)c2)cc2nn(C)c(F)c12)[C@H]1CNC(=O)C1` (stereo partly shown) [Example 7] were, in that order, 1.3 nM, 26200 nM and 20154.
In the case of `C[C@@H](Oc1cc(-c2cnn(C3CCC3)c2)cc2nn(C)c(F)c12)[C@H]1CNC(=O)C1` [Example 1, (R)-4-{(R)-1-[6-(1-Cyclobutyl-1H-pyrazol-4-yl)-3-fluoro-2-methyl-2H-indazol-4-yloxy]-ethyl}-pyrrolidin-2-one], the IC50 in experiment [1] (setting [3]) was 1 nM; in experiment [2] (setting [4]), 34800 nM. For the same compound, in experiment [2], the “selectivity ratio IC50(AURB)/IC50(SYK)” value stood at 34800.
Consider `Cc1cc2c(O[C@H](C)[C@H]3CNC(=O)C3)cc(-c3cnn(C(C)(C)C)c3)cn2n1` [example 6.60 on page 587 of WO15017610, reference compound], for which the IC50 was 10.3 nM in experiment [1] (setting [5]), 10.3 nM in experiment [1] (setting [3]), more than 50000 nM in experiment [2] (setting [4]) and more than 50000 nM in experiment [2] (read-out: IC50(AURB)). Besides, in experiment [2], the “selectivity ratio IC50(AURB)/IC50(SYK)” value is reported as more than 4850.
In the case of `Cc1c2c(O[C@H](C)[C@H]3CNC(=O)C3)cc(-c3cnn(C4CC(C)(C)OC4(C)C)c3)cc2nn1C` (stereo partly drawn) [Example 16, (R)-4-((R)-1-{2,3-Dimethyl-6-[1-(2,2,5,5-tetramethyl-tetrahydro-furan-3-yl)-1H-pyrazol-4-yl]2H-indazol-4-yloxy}-ethyl)-pyrrolidin-2-one], the IC50 in experiment [1] (setting [3]) was 3.1 nM; in experiment [2] (setting [4]), 44400 nM. The “selectivity ratio IC50(AURB)/IC50(SYK)” value in experiment [2] amounted to 14323.
On to `Cc1cnn2cc(-c3cnn(C(C)(C)C)c3)cc(O[C@H](C)[C@H]3CNC(=O)C3)c12` [example 6.09 on page 559 of WO15017610, reference compound], for which the IC50 was less than 10 nM in experiment [1] (setting [5]), 0.1 nM in experiment [1] (setting [3]), 37 nM in experiment [2] (setting [4]) and 37 nM in experiment [2] (read-out: IC50(AURB)). Moreover, in experiment [2], the “selectivity ratio IC50(AURB)/IC50(SYK)” value came out at 370.
Regarding `Cc1c2c(O[C@H](C)[C@H]3CNC(=O)C3)cc(-c3cnn(C(C)(C)C)c3)cc2nn1C` [Example 13, (R)-4-{(R)-1-[6-(1-tert-Butyl-1H-pyrazol-4-yl)-2,3-dimethyl-2H-indazol-4-yloxy]-ethyl}-pyrrolidin-2-one], the 50% inhibitory concentration (IC50) in experiment [1] (setting [3]) worked out at 0.9 nM; in experiment [2] (setting [4]) it was 36000 nM. Besides, the “selectivity ratio IC50(AURB)/IC50(SYK)” value in experiment [2] is reported as 39982.
For `Cc1c2c(O[C@H](C)[C@H]3CNC(=O)C3)cc(-c3cnn([C@H]4CO[C@@H]5CCCO[C@@H]54)c3)cc2nn1C` [Example 10, 4-(1-{6-[(R)-(3S,3aR,7aR)-1-(Hexahydro-furo[3,2-b]pyran-3-yl)-1H-pyrazol-4-yl]-2,3-dimethyl-2H-indazol-4-yloxy}-ethyl)-pyrrolidin-2-one], the half-inhibitory concentration (IC50) came to 3.3 nM in experiment [1] (setting [3]) and 34000 nM in experiment [2] (setting [4]). The “selectivity ratio IC50(AURB)/IC50(SYK)” value in experiment [2] came out at 10312.
Take `Cc1c2c(O[C@H](C)[C@H]3CNC(=O)C3)cc(-c3cnn(C4CCC(F)(F)C4)c3)cc2nn1C` (stereo partly drawn) [Example 22, (R)-4-((R)-1-{6-[1-(3,3-Difluoro-cyclopentyl)-1H-pyrazol-4-yl]-2,3-dimethyl-2H-indazol-4-yloxy}-ethyl)-pyrrolidin-2-one]: the results for the half-maximal inhibitory concentration (IC50) in experiment [1] (setting [3]) and in experiment [2] (setting [4]) were 1.2 nM and 13400 nM, respectively. Further, the “selectivity ratio IC50(AURB)/IC50(SYK)” value in experiment [2] was found to be 11207.
For `Cc1c2c(O[C@H](C)[C@H]3CNC(=O)C3)cc(-c3cnn(C4CC4)c3)cc2nn1C` [Example 20, (R)-4-{(R)-1-[6-(1-Cyclopropyl-1H-pyrazol-4-yl)-2,3-dimethyl-2H-indazol-4-yloxy]-ethyl}-pyrrolidin-2-one], the IC50 amounted to 2.5 nM in experiment [1] (setting [3]) and 34800 nM in experiment [2] (setting [4]). The “selectivity ratio IC50(AURB)/IC50(SYK)” value in experiment [2] is 13932.
Take `Cc1c2c(O[C@H](C)[C@H]3CNC(=O)C3)cc(-c3cnn([C@@H]4CCOC(C)(C)C4)c3)cc2nn1C` [Example 9, (R)-4-((R)-1-{6-[1-((R)-2,2-Dimethyl-tetrahydro-pyran-4-yl)-1H-pyrazol-4-yl]-2,3-dimethyl-2H-indazol-4-yloxy}-ethyl)-pyrrolidin-2-one]: the 50% inhibitory concentration (IC50) stood at 1.1 nM in experiment [1] (setting [3]) and 23300 nM in experiment [2] (setting [4]). The “selectivity ratio IC50(AURB)/IC50(SYK)” value in experiment [2] stood at 21219.
For the compound `Cc1c2c(O[C@H](C)[C@H]3CNC(=O)C3)cc(-c3cnn(C(C)(C)C#N)c3)cc2nn1C` [Example 17, 2-(4-{2,3-Dimethyl-4-[(R)-1-((R)-5-oxo-pyrrolidin-3-yl)-ethoxy]-2H-indazol-6-yl}-pyrazol-1-yl)-2-methyl-propionitrile], the IC50 in experiment [1] (setting [3]) was 2.9 nM; in experiment [2] (setting [4]), 50000 nM. In addition, in experiment [2], the “selectivity ratio IC50(AURB)/IC50(SYK)” value was 17241.
In the same order, the values of `Cc1c2c(O[C@H](C)[C@H]3CNC(=O)C3)cc(-c3cnn(C(C)C)c3)cc2nn1C` [Example 18, (R)-4-{(R)-1-[6-(1-Isopropyl-1H-pyrazol-4-yl)-2,3-dimethyl-2H-indazol-4-yloxy]-ethyl}-pyrrolidin-2-one] are 1.1 nM, 20200 nM and 18323.
For `C[C@@H](Oc1cc(-c2cnn(CC3CC3)c2)cc2nn(C)c(F)c12)[C@H]1CNC(=O)C1` [Example 6, (R)-4-{(R)-1-[6-(1-Cycloprop-ylmethyl-1H-pyrazol-4-yl)-3-fluoro-2-methyl-2H-indazol-4-yloxy]-ethyl}-pyrrolidin-2-one], the 50% inhibitory concentration (IC50) in experiment [1] (setting [3]) was 2.6 nM; in experiment [2] (setting [4]), 34100 nM. In addition, the “selectivity ratio IC50(AURB)/IC50(SYK)” value in experiment [2] was 13115.
In the same order, the values of `CC(C)n1cc(-c2cc(O[C@H](C)[C@H]3CNC(=O)C3)c3c(F)n(C)nc3c2)cn1` [Example 2, (R)-4-{(R)-1-[3-Fluoro-6-(1-isopropyl-1H-pyrazol-4-yl)-2-methyl-2H-indazol-4-yloxy]-ethyl}-pyrrolidin-2-one] are 1.3 nM, 31100 nM and 23955.
